Assay results reported in PubChem BioAssay AID248 (DTP/NCI, 2004).
Where “and” joins values, the source holds several entries; their conditions need not be identical. Equal entries are not always repeated. Inconclusive results and toxic doses are left out. Cut-off read from the data, not from the text of the source: active = T/C of 150% or more; inactive = T/C below 125%.

Tested on: L1210 leukemia ip in BDF1 mice, survival T/C
Test: NCI In Vivo Anticancer Drug Screen. Data for tumor model L1210 Leukemia (intraperitoneal) in B6D2F1 (BDF1) mice
Settings: higher = longer survival
In short: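 Survival endpoint. Drug-treated group vs vehicle group, expressed as T divided by C. Tumor passaged by transplantation.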

[1] = endpoint: mean survival time, dose: 100.0 mg/kg/injection, schedule: Q01DX009 (ip), vehicle: saline with Tween-80
[2] = endpoint: mean survival time, dose: 200.0 mg/kg/injection, schedule: Q01DX009 (ip), vehicle: saline with Tween-80
[3] = endpoint: mean survival time, dose: 400.0 mg/kg/injection, schedule: Q01DX009 (ip), vehicle: saline with Tween-80
[4] = endpoint: mean survival time, dose: 400.0 mg/kg/injection, schedule: Q04DX003 (ip), vehicle: saline with Tween-80
[5] = endpoint: mean survival time, dose: 100.0 mg/kg/injection, schedule: Q04DX003 (ip), vehicle: saline with Tween-80
[6] = endpoint: mean survival time, dose: 200.0 mg/kg/injection, schedule: Q04DX003 (ip), vehicle: saline with Tween-80
[7] = endpoint: mean survival time, dose: 100.0 mg/kg/injection, schedule: Q04DX003 (ip), vehicle: Klucel (hydroxypropylcellulose) (HPC)
[8] = endpoint: mean survival time, dose: 200.0 mg/kg/injection, schedule: Q04DX003 (ip), vehicle: Klucel (hydroxypropylcellulose) (HPC)
[9] = endpoint: mean survival time, dose: 400.0 mg/kg/injection, schedule: Q04DX003 (ip), vehicle: Klucel (hydroxypropylcellulose) (HPC)
[10] = endpoint: mean survival time, dose: 100.0 mg/kg/injection, schedule: Q01DX001 (ip), vehicle: other
[11] = endpoint: mean survival time, dose: 200.0 mg/kg/injection, schedule: Q01DX001 (ip), vehicle: other
[12] = endpoint: mean survival time, dose: 50.0 mg/kg/injection, schedule: Q01DX001 (ip), vehicle: saline
[13] = endpoint: mean survival time, dose: 100.0 mg/kg/injection, schedule: Q01DX001 (ip), vehicle: saline
[14] = endpoint: mean survival time, dose: 200.0 mg/kg/injection, schedule: Q01DX001 (ip), vehicle: saline
[15] = endpoint: mean survival time, dose: 100.0 mg/kg/injection, schedule: Q04DX002 (ip), vehicle: Klucel (hydroxypropylcellulose) (HPC)
[16] = endpoint: mean survival time, dose: 200.0 mg/kg/injection, schedule: Q04DX002 (ip), vehicle: Klucel (hydroxypropylcellulose) (HPC)
[17] = endpoint: mean survival time, dose: 400.0 mg/kg/injection, schedule: Q04DX002 (ip), vehicle: Klucel (hydroxypropylcellulose) (HPC)
[18] = endpoint: mean survival time, dose: 400.0 mg/kg/injection, schedule: Q01DX001 (ip), vehicle: saline

Measured: T/C

Cc1nc2nc(N)nc(N)c2nc1CNc1ccc(C(=O)NC(CCC(=O)O)C(=O)O)cc1 (stereo not drawn)
inactive: endpoint: median survival time, dose: 0.39 mg/kg/injection, schedule: Q01DX009 (ip), vehicle: other 100 % of control | endpoint: median survival time, dose: 0.65 mg/kg/injection, schedule: Q01DX009 (ip), vehicle: other 100 % of control | endpoint: median survival time, dose: 1.08 mg/kg/injection, schedule: Q01DX009 (ip), vehicle: other 100 % of control | endpoint: median survival time, dose: 1.8 mg/kg/injection, schedule: Q01DX009 (ip), vehicle: other 100 % of control | endpoint: median survival time, dose: 5.0 mg/kg/injection, schedule: Q01DX009 (ip), vehicle: other 100 % of control | endpoint: median survival time, dose: 14.0 mg/kg/injection, schedule: Q01DX009 (ip), vehicle: other 110 % of control | endpoint: median survival time, dose: 108.0 mg/kg/injection, schedule: Q01DX009 (ip), vehicle: other 100 % of control | endpoint: median survival time, dose: 180.0 mg/kg/injection, schedule: Q01DX009 (ip), vehicle: other 105 % of control | endpoint: median survival time, dose: 300.0 mg/kg/injection, schedule: Q01DX009 (ip), vehicle: other 105 % of control

CC1=C(C)CC(C(Cl)(Cl)Cl)C([N+](=O)[O-])C1 (stereo not drawn)
inactive: [1] 96 % of control

O=C(O)c1c(-c2ccccc2)oc(-c2ccccc2)c1C(=O)O
inactive: endpoint: mean survival time, dose: 100.0 mg/kg/injection, schedule: Q04DX002 (ip), vehicle: saline 105 % of control | endpoint: mean survival time, dose: 200.0 mg/kg/injection, schedule: Q04DX002 (ip), vehicle: saline 94 % of control

O=C(NC(=S)Nc1cc(C(F)(F)F)ccc1Cl)c1ccccc1F
inactive: endpoint: mean survival time, dose: 12.5 mg/kg/injection, schedule: Q01DX009 (ip), vehicle: saline with Tween-80 93 % of control and 97 % of control | endpoint: mean survival time, dose: 100.0 mg/kg/injection, schedule: Q01DX001 (ip), vehicle: saline with Tween-80 104 % of control | endpoint: mean survival time, dose: 100.0 mg/kg/injection, schedule: Q04DX002 (ip), vehicle: saline with Tween-80 97 % of control and 100 % of control | endpoint: mean survival time, dose: 200.0 mg/kg/injection, schedule: Q01DX001 (ip), vehicle: saline with Tween-80 102 % of control | [2] 86 % of control | endpoint: mean survival time, dose: 200.0 mg/kg/injection, schedule: Q04DX002 (ip), vehicle: saline with Tween-80 93 % of control and 97 % of control | endpoint: mean survival time, dose: 400.0 mg/kg/injection, schedule: Q01DX001 (ip), vehicle: saline with Tween-80 102 % of control | [3] 95 % of control | endpoint: mean survival time, dose: 400.0 mg/kg/injection, schedule: Q04DX002 (ip), vehicle: saline with Tween-80 100 % of control and 91 % of control | [4] 87 % of control

CCN1CCN(Cc2ccccc2)C(CCl)C1 (stereo not drawn)
inactive: endpoint: mean survival time, dose: 12.5 mg/kg/injection, schedule: Q01DX009 (ip), vehicle: Klucel (hydroxypropylcellulose) (HPC) 96 % of control | endpoint: mean survival time, dose: 12.5 mg/kg/injection, schedule: Q04DX003 (ip), vehicle: Klucel (hydroxypropylcellulose) (HPC) 100 % of control | endpoint: mean survival time, dose: 25.0 mg/kg/injection, schedule: Q01DX009 (ip), vehicle: Klucel (hydroxypropylcellulose) (HPC) 102 % of control | endpoint: mean survival time, dose: 25.0 mg/kg/injection, schedule: Q04DX003 (ip), vehicle: Klucel (hydroxypropylcellulose) (HPC) 96 % of control | endpoint: mean survival time, dose: 50.0 mg/kg/injection, schedule: Q04DX003 (ip), vehicle: Klucel (hydroxypropylcellulose) (HPC) 93 % of control

COC(=O)C#CC(c1ccccc1)(c1ccccc1)c1ccccc1
inactive: [5] 90 % of control | [6] 87 % of control | [4] 90 % of control

CC12CCC(O)CC1CCC1C2CCC2(C)C1CC1NC12 (stereo not drawn)
inactive: endpoint: mean survival time, dose: 100.0 mg/kg/injection, schedule: Q01DX001 (sc), vehicle: steriod suspending solution 92 % of control | endpoint: mean survival time, dose: 200.0 mg/kg/injection, schedule: Q01DX001 (sc), vehicle: steriod suspending solution 94 % of control

c1ccn(-c2nccs2)c1
inactive: [5] 103 % of control | [6] 113 % of control

COC1CCC2(C)C3CCC4C(=CCC5C(C)(C)C(=O)CCC45C)CC3(C)CCC2C1(C)C (stereo not drawn)
inactive: endpoint: mean survival time, dose: 75.0 mg/kg/injection, schedule: Q01DX001 (ip), vehicle: carboxymethylcellulose (CMC) 105 % of control | endpoint: mean survival time, dose: 150.0 mg/kg/injection, schedule: Q01DX001 (ip), vehicle: carboxymethylcellulose (CMC) 110 % of control | endpoint: mean survival time, dose: 300.0 mg/kg/injection, schedule: Q01DX001 (ip), vehicle: carboxymethylcellulose (CMC) 104 % of control

CC(=O)Nc1ccc(NC(=O)Nc2ccc(F)c(Cl)c2)cc1
inactive: [7] 92 % of control | [8] 97 % of control | [9] 95 % of control

CS(=O)(=O)NC(=O)NCCCl
inactive: [10] 95 % of control | [11] 95 % of control | endpoint: mean survival time, dose: 400.0 mg/kg/injection, schedule: Q01DX001 (ip), vehicle: other 98 % of control

COc1ccc(NCCC(O)CN2CCOCC2)cc1 (stereo not drawn)
inactive: [12] 100 % of control | [13] 94 % of control | [14] 119 % of control

CCOC(=O)CNc1ccc(F)c(Cl)c1
inactive: [15] 106 % of control and 108 % of control | [16] 98 % of control and 112 % of control | [17] 102 % of control | endpoint: mean survival time, dose: 600.0 mg/kg/injection, schedule: Q04DX002 (ip), vehicle: Klucel (hydroxypropylcellulose) (HPC) 98 % of control

CN(C)C(=S)SCc1c(Cl)c(Cl)c(Cl)c(Cl)c1Cl
inactive: [7] 105 % of control | [8] 100 % of control | [9] 94 % of control

O=C(Cc1ccc(F)cc1)c1ccccc1
inactive: [5] 98 % of control | [6] 98 % of control | [4] 96 % of control

CC(C)CN(C)N=Nc1ccc(C(N)=O)cc1
inactive: [10] 100 % of control | [11] 91 % of control

O=C(N/N=C/c1ccc2c(c1)OCO2)c1cccc2ccccc12
inactive: [13] 97 % of control | [14] 86 % of control | [18] 97 % of control

CC(C)(C)N1CCC1C(=O)NN (stereo not drawn)
inactive: endpoint: mean survival time, dose: 50.0 mg/kg/injection, schedule: Q01DX009 (ip), vehicle: saline 96 % of control | endpoint: mean survival time, dose: 100.0 mg/kg/injection, schedule: Q01DX009 (ip), vehicle: saline 93 % of control | endpoint: mean survival time, dose: 200.0 mg/kg/injection, schedule: Q01DX009 (ip), vehicle: saline 93 % of control

CC(C)(O)C1(O)CCCC1
inactive: [12] 95 % of control | [13] 93 % of control | [14] 101 % of control | [18] 93 % of control

CCNC(=O)c1cc(NC(=O)Nc2ccc(C3=NCCN3)cc2)cc(NC(=O)Nc2ccc(C3=NCCN3)cc2)c1
inactive: endpoint: mean survival time, dose: 62.0 mg/kg/injection, schedule: Q01DX Z (ip), vehicle: carboxymethylcellulose (CMC) 102 % of control | endpoint: mean survival time, dose: 125.0 mg/kg/injection, schedule: Q01DX Z (ip), vehicle: carboxymethylcellulose (CMC) 103 % of control | endpoint: mean survival time, dose: 250.0 mg/kg/injection, schedule: Q01DX Z (ip), vehicle: carboxymethylcellulose (CMC) 107 % of control | endpoint: mean survival time, dose: 500.0 mg/kg/injection, schedule: Q01DX Z (ip), vehicle: carboxymethylcellulose (CMC) 102 % of control

CCN(CC)CCCC(Nc1c2ccc(Cl)cc2nc2ccc(OC)cc12)c1ccc(F)cc1 (stereo not drawn)
inactive: endpoint: mean survival time, dose: 9.0 mg/kg/injection, schedule: Q01DX Z (ip), vehicle: methylcellulose (MC) 86 % of control | endpoint: mean survival time, dose: 15.0 mg/kg/injection, schedule: Q01DX Z (ip), vehicle: methylcellulose (MC) 95 % of control | endpoint: mean survival time, dose: 20.0 mg/kg/injection, schedule: Q01DX Z (ip), vehicle: methylcellulose (MC) 86 % of control | endpoint: mean survival time, dose: 30.0 mg/kg/injection, schedule: Q01DX Z (ip), vehicle: methylcellulose (MC) 89 % of control

O=[N+]([O-])c1ccc(/C=C/c2ccc([N+](=O)[O-])cc2S(=O)(=O)O)c(S(=O)(=O)O)c1
inactive: endpoint: mean survival time, dose: 100.0 mg/kg/injection, schedule: Q04DX003 (ip), vehicle: saline 94 % of control | endpoint: mean survival time, dose: 200.0 mg/kg/injection, schedule: Q04DX003 (ip), vehicle: saline 96 % of control | endpoint: mean survival time, dose: 400.0 mg/kg/injection, schedule: Q04DX003 (ip), vehicle: saline 96 % of control

O=C(C[n+]1ccc(/C=N\O)cc1)c1ccc(-c2ccc(C(=O)C[n+]3ccc(/C=N/O)cc3)cc2)cc1
inactive: [15] 103 % of control | [16] 100 % of control | [17] 92 % of control

O=C(/C=C/c1cccc([N+](=O)[O-])c1)Nc1cccnc1
inactive: endpoint: mean survival time, dose: 100.0 mg/kg/injection, schedule: Q01DX009 (ip), vehicle: gum acacia 90 % of control | endpoint: mean survival time, dose: 200.0 mg/kg/injection, schedule: Q01DX009 (ip), vehicle: gum acacia 96 % of control | endpoint: mean survival time, dose: 400.0 mg/kg/injection, schedule: Q01DX009 (ip), vehicle: gum acacia 94 % of control

CC(C)COC(=O)Nc1cccc(O)c1
inactive: [1] 91 % of control | [2] 90 % of control | [3] 94 % of control
